# Like-named read-outs stand apart in the source and are kept apart here.
# Molecular target: T1, KSP motor domain (Homo sapiens, UniProt P52732)
# T1 sequence (P52732 18-359 limits assumed): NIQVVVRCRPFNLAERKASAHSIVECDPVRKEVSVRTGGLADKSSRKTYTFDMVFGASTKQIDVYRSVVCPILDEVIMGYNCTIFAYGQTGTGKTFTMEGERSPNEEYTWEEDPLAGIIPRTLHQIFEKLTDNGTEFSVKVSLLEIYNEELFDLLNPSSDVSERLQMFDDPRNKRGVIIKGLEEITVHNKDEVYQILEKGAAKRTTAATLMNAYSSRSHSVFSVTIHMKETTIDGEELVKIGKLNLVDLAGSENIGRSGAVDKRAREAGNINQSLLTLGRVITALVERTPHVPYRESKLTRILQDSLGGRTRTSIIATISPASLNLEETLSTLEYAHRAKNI
# Test: biochemical
# Settings: read-out: IC50
# [1] = KSP inhibitory activity, end-point assay, class symbols (Table 1)
# [2] = exact IC50 values, end-point assay (Table 2)
Compound,IC50 [1] [µM],IC50 [2] [µM]
CC(C)(C)C1CCc2cc3cc(C(N)=O)sc3nc2CC1 (centres unmarked) [Example 66],1 to 10,–
"CC(C)(C)C1CCc2nc3sc4c(=O)[nH]nnc4c3cc2C1 (centres unmarked) [Example 119, 7-tert-Butyl-6,7,8,9-tetrahydro2H-11-thia-2,3,4,10-tetraazabenzo[b]fluoren-1-one]",1 to 10,–
CC(CO)NC(=O)c1cc2cc3c(nc2s1)CCC(C(C)(C)C)C3 (centres unmarked) [Example 82],1 to 10,–
CC(C)(C)C1CCc2nc3sc(C(=O)NC(CN)c4ccccc4)cc3cc2C1 (centres unmarked) [Example 178],< 0.1,0.025
N#Cc1sc2nc3c(cc2c1N)CC(C(F)(F)F)CC3 (centres unmarked) [Example 14],1 to 10,–
CC(C)C1CCc2cc3c(N)c(C#N)sc3nc2C1 (centres unmarked) [Example 51],> 10,–
CC(C)(C)C1CCc2nc3sc(C(=O)N[C@H](CN)c4ccc([N+](=O)[O-])cc4)cc3cc2C1 (some centres unmarked) [Example 215],< 0.1,–
"CC(C)(C)[C@@H]1CCc2nc3sc(C(=O)N[C@H](CN)c4ccc(NC(=O)c5ccco5)cc4)cc3cc2C1 [Example 273, 6(R)-tert-Butyl-5,6,7,8-tetrahydro-thieno[2,3-b]quinoline-2-carboxylic acid (2-amino-1(S)-{4-[(furan-2-carbonyl)-amino]-phenyl}-ethyl)-amide]",< 0.1,0.017
"Cc1cc(C(=O)Nc2cccc([C@@H](CNCCO)NC(=O)c3cc4cc5c(nc4s3)CC[C@@H](C(C)(C)C)C5)c2)no1 [Example 266, 6(R)-tert-butyl-5,6,7,8-tetrahydro-thieno[2,3-b]quinoline-2-carboxylic acid (2-(2-hydroxy-ethylamino)-1(S)-{3-[(5-methyl-isoxazole-3-carbonyl)-amino]-phenyl}-ethyl)-amide]",< 0.1,–
CC(C)(C)C1CCc2nc3sc(C(=O)N[C@@H](Cc4ccccc4)C(=N)N)cc3cc2C1 (some centres unmarked) [Example 173],1 to 10,–
"CCC1Cc2nc3sc(C#N)cc3cc2CC1C(C)(C)C (centres unmarked) [Example 206, 6-tert-Butyl-7-ethyl-5,6,7,8-tetrahydro-thieno[2,3,-b]quinoline-2-carbonitrile]",1 to 10,–
Cc1onc(-c2ccccc2)c1C(=O)Nc1cccc([C@@H](CN)NC(=O)c2cc3cc4c(nc3s2)CC[C@@H](C(C)(C)C)C4)c1 [Example 230],0.1 to 1,–
CC(C)(C)C1CCc2nc3sc(C(=O)NCCN)cc3cc2C1 (centres unmarked) [Example 99],< 0.1,0.022
CC(C)(C)C1CCc2nc3sc(CNC(=O)C4CC4)cc3cc2C1 (centres unmarked) [Example 155],1 to 10,–
"CC(C)(C)C1CCc2nc3sc(C(=O)NO)cc3cc2C1 (centres unmarked) [Example 104, 6-tert-Butyl-5,6,7,8-tetrahydrothieno[2,3-b]quinoline-2-carboxylic acid hydroxyamide]",< 0.1,–
"CC(C)(C)C1CCc2nc3sc(C(N)=O)cc3cc2C1 (single isomer, unassigned; (-)) [Example 67, (−)-6-(1,1-dimethylethyl)-5,6,7,8-tetrahydrothieno[2,3-b]quinoline-2-carboxamide]",0.1 to 1,–
Cn1nccc1C(=O)Nc1cccc([C@@H](CN)NC(=O)c2cc3cc4c(nc3s2)CC[C@@H](C(C)(C)C)C4)c1 [Example 238],< 0.1,–
"CC(C)(C)C1CCc2nc3sc(C(=O)NCCN)c(N)c3cc2C1 (centres unmarked) [Example 193, 3-Amino-N-(2-Aminoethyl)-6-(1,1-Dimethylethyl)-5,6,7,8-Tetrahydrothieno[2,3-b]quinoline-2-Carboxamide]",1 to 10,–
"CC(C)(C)C1CCc2nc3sc(C(=O)NCC(=N)N)cc3cc2C1 (centres unmarked) [Example 168, 6-tert-Butyl-5,6,7,8-tetrahydrothieno[2,3-b]quinoline-2-carboxylic acid carbamimidoylmethylamide]",< 0.1,0.008
CCNC(=O)c1cc2cc3c(nc2s1)CCC(C(C)(C)C)C3 (centres unmarked) [Example 79],1 to 10,–
"CC1Cc2nc3sc(C(N)=O)cc3cc2CC1C(C)(C)C (centres unmarked) [Example 204, 6-tert-Butyl-7-methyl-5,6,7,8-tetrahydro-thieno[2,3,-b]quinoline-2-carboxylic acid amide]",0.1 to 1,–

Compound,IC50 [1] [µM],IC50 [2] [µM]
"CC(C)(C)C1CCc2nc3sc(C#N)cc3cc2C1 (racemic) [Example 58, 6-tert-butyl-5,6,7,8-tetrahydrothieno[2,3-b]quinoline-2-carbonitrile]",0.1 to 1,–
CC(C)(C)C1CCc2cc3cc(C#N)sc3nc2CC1 (centres unmarked) [Example 61],1 to 10,–
COC(=O)[C@H]1CCCN1C(=O)c1cc2cc3c(nc2s1)CCC(C(C)(C)C)C3 (some centres unmarked) [Example 89],> 10,–
CC(C)(C)C1CCCc2nc3sc(C#N)cc3cc2C1 (centres unmarked) [Example 60],< 0.1,–
CC(C)(C)C1CCc2nc3sc(C(=O)N[C@@H](Cc4ccc(O)cc4)C(=N)N)cc3cc2C1 (some centres unmarked) [Example 174],1 to 10,–
CCC(C)(C)C1CCc2nc3sc(C#N)cc3c(Cl)c2C1 (centres unmarked) [Example 113],1 to 10,–
"CC(C)(C)C1CCc2nc3sc(C(=O)N[C@H](CN)c4cccc(Br)c4)cc3cc2C1 (stereo partly drawn) [Example 210, 6-tert-butyl-5,6,7,8-tetrahydro-thieno[2,3-b]quinoline-2-carboxylic acid [(1S)-2-amino-1-(3-bromo-phenyl)-ethyl]-amide]",0.1 to 1,–
"CC(C)(C)C1CCc2nc3sc(S(C)(=O)=O)c(N)c3cc2C1 (centres unmarked) [Example 120, 6-tert-Butyl-2-methanesulfonyl-5,6,7,8-tetrahydrothieno[2,3-b]quinolin-3-ylamine]",0.1 to 1,–
CC(C)(C)C1CCc2nc3sc(C(=O)NC(CO)(CO)CO)cc3cc2C1 (centres unmarked) [Example 98],1 to 10,–
"CC(C)(C)C1CCc2nc3sc(-c4nnc[nH]4)cc3cc2C1 (centres unmarked) [Example 182, 6-tert-Butyl-2-(4H-[1,2,4]triazol-3-yl)-5,6,7,8-tetrahydrothieno[2,3-b]quinoline]",0.1 to 1,–
CC1Cc2nc3sc(C#N)c(N)c3cc2C(C)C1 (centres unmarked) [Example 46],> 10,–
CC1(C)Cc2nc3sc(C#N)c(N)c3cc2C(C)(C)C1 [Example 48],> 10,–
N#Cc1sc2nc3c(cc2c1N)CC(C1CCCCC1)CC3 (centres unmarked) [Example 18],> 10,–
"CC(C)(C)C1CCc2nc3sc(-c4ncc(CO)[nH]4)cc3cc2C1 (centres unmarked) [Example 183, [2-(6-tert-Butyl-5,6,7,8-tetrahydrothieno[2,3-b]quinolin-2-yl)-3H-imidazol-4-yl]methanol]",1 to 10,–
"CC(C)(C)C1CCc2nc3sc(C(N)=O)cc3cc2C1 (centres unmarked) [Example 64, 6-tert-butyl-5,6,7,8-tetrahydrothieno[2,3-b]quinoline-2-carboxylic acid amide]",< 0.1,–
CCCC1CCc2cc3c(N)c(C#N)sc3nc2C1 (centres unmarked) [Example 49],> 10,–
Cn1ncc(C(=O)Nc2cccc([C@@H](CN)NC(=O)c3cc4cc5c(nc4s3)CC[C@@H](C(C)(C)C)C5)c2)c1C(F)(F)F [Example 245],< 0.1,–
CC(C)(C)C1CCc2nc3sc(CNC(N)=O)cc3cc2C1 (centres unmarked) [Example 156],0.1 to 1,–
"CC(C)(C)C1CCc2nc3sc(C#N)cc3cc2C1 (single isomer, unassigned) [Example 62]",0.1 to 1,–
CC[C@H](NC(=O)c1cc2cc3c(nc2s1)CCC(C(C)(C)C)C3)C(=N)N (some centres unmarked) [Example 170],0.1 to 1,–
Cn1ccnc1C(=O)Nc1cccc([C@@H](CN)NC(=O)c2cc3cc4c(nc3s2)CC[C@@H](C(C)(C)C)C4)c1 [Example 250],< 0.1,0.019

# Source: US20060247320A1, “Compounds for inhibiting KSP kinesin activity” (priority 2005, published 2006)
